Literature values in patent US20230285429A1, “CANNABINOID ACID FORMULATIONS, DELIVERY SYSTEMS, AND METHODS OF USE” (Flora Growth U.S. Holdings Corp., priority 2022, published 2023).

Key:
[1] = fatty acids, intestinal lymph
[2] = molecular target: spike protein of SARS-CoV-2 (Severe acute respiratory syndrome coronavirus 2, UniProt P0DTC2)

CCCCC/C=C\C/C=C\CCCCCCCC(=O)O [linoleic]
percentage transported to the lymph system [1]: 32%

CCCCCCCCCC(=O)O [decanoic]
percentage transported to the lymph system [1]: 13%

CCCCCc1cc(O)c(C/C=C(\C)CCC=C(C)C)c(O)c1C(=O)O [CBGA, cannabigerolic acid]
affinity for the spike protein [2]: high affinity

C=C(C)[C@@H]1CCC(C)=C[C@H]1c1c(O)cc(CCCCC)c(C(=O)O)c1O [CBDA, cannabidiolic acid]
affinity for the spike protein [2]: high affinity

CCCCCCCCCCCC(=O)O [lauric]
percentage transported to the lymph system [1]: 28%
